Test results taken from the supplement of paper PMC10307832.

Legend:
Test in all cases: relative viability (nuclei count vs DMSO), 5 days (fraction); higher = more cells survive
[1] = compound: Cn1cncc1[C@@](N)(c1ccc(Cl)cc1)c1ccc2c(c1)c(-c1cccc(Cl)c1)cc(=O)n2C [Tipifarnib] + CC(=O)Nc1cccc(-n2c(=O)n(C3CC3)c(=O)c3c(Nc4ccc(I)cc4F)n(C)c(=O)c(C)c32)c1 [Trametinib] (partner 0.02 µM)
Procedure, shortened: (§1)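 Lung cancer cell lines were pin-tool dosed in 1536-well plates on the day after seeding, with either a lone drug or a fixed anchor-drug dose plus five library-drug doses (not always all listed) in √10 steps. Nuclei were counted on 4× images after 5 days. Relative viability is the ratio of treated-well to vehicle-well nuclei counts, with each value a median of duplicate plates.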

[2] = compound: Cn1cncc1[C@@](N)(c1ccc(Cl)cc1)c1ccc2c(c1)c(-c1cccc(Cl)c1)cc(=O)n2C [Tipifarnib] + O=C(c1cc(Cc2n[nH]c(=O)c3ccccc23)ccc1F)N1CCN(C(=O)C2CC2)CC1 [Olaparib] (partner 8 µM)
Procedure, shortened: as §1

[3] = compound: Cn1cncc1[C@@](N)(c1ccc(Cl)cc1)c1ccc2c(c1)c(-c1cccc(Cl)c1)cc(=O)n2C [Tipifarnib] + CS(=O)(=O)CCNCc1ccc(-c2ccc3ncnc(Nc4ccc(OCc5cccc(F)c5)c(Cl)c4)c3c2)o1 [Lapatinib] (partner 2 µM)
Procedure, shortened: as §1

[4] = compound: Cn1cncc1[C@@](N)(c1ccc(Cl)cc1)c1ccc2c(c1)c(-c1cccc(Cl)c1)cc(=O)n2C [Tipifarnib] + N=C(N)NC(=N)NCCc1ccccc1 [Phenformin] (partner 250 µM)
Procedure, shortened: as §1

Cell Line	relative viability ([1]; first compound 0.01 µM)	relative viability ([1]; first compound 0.03162 µM)	relative viability ([1]; first compound 0.1 µM)	relative viability ([1]; first compound 0.3162 µM)	relative viability ([1]; first compound 1 µM)	relative viability ([2]; first compound 0.01 µM)	relative viability ([2]; first compound 0.03162 µM)	relative viability ([2]; first compound 0.1 µM)	relative viability ([2]; first compound 0.3162 µM)	relative viability ([2]; first compound 1 µM)	relative viability ([3]; first compound 0.01 µM)	relative viability ([3]; first compound 0.03162 µM)	relative viability ([3]; first compound 0.1 µM)	relative viability ([3]; first compound 0.3162 µM)	relative viability ([3]; first compound 1 µM)	relative viability ([4]; first compound 0.01 µM)	relative viability ([4]; first compound 0.03162 µM)	relative viability ([4]; first compound 0.1 µM)	relative viability ([4]; first compound 0.3162 µM)	relative viability ([4]; first compound 1 µM)
NCI-H1944	0.438	0.371	0.348	0.297	0.302	0.41	0.364	0.356	0.376	0.382	0.854	0.622	0.599	0.444	0.342	0.207	0.194	0.163	0.155	0.168
HARA	0.784	0.77	0.635	0.588	0.508	0.842	0.865	0.762	0.996	0.76	0.737	0.682	0.735	0.664	0.332	0.52	0.494	0.501	0.412	0.156
NCI-H2126	0.585	0.496	0.528	0.515	0.482	0.927	0.885	0.844	0.843	0.879	0.782	0.724	0.769	0.761	0.469	0.56	0.532	0.517	0.49	0.435
LXF-289	0.71	0.684	0.695	0.557	0.64	1.12	1.02	0.989	0.805	0.91	0.88	0.865	0.855	0.787	0.708	0.518	0.494	0.494	0.418	0.175
NCI-H460	0.142	0.0861	0.0817	0.0529	0.0386	0.462	0.369	0.219	0.207	0.208	0.987	0.431	0.285	0.195	0.0315	0.516	0.376	0.295	0.224	0.0277
NCI-H1395	1.25	0.966	0.946	0.862	0.967	0.444	0.5	0.454	0.421	0.473	1.03	0.85	0.82	0.68	0.48	0.444	0.398	0.428	0.436	0.348
NCI-H2170	1.04	0.876	0.793	0.716	0.655	0.687	0.582	0.536	0.47	0.474	0.245	0.271	0.272	0.265	0.248	0.439	0.418	0.389	0.379	0.343
NCI-H2009	0.265	0.21	0.192	0.183	0.185	0.729	0.714	0.585	0.558	0.469	0.99	0.707	0.708	0.602	0.326	0.525	0.492	0.388	0.386	0.352
